Data on seven molecules can be found in patent publication US4526892A, “Dimethylaminoalkyl-3-(ergoline-8'βcarbonyl)-ureas” (Farmitalia Carlo Erba, S.p.A., priority 1982, dated 1985).

SMILES strings stand for the structures.

As usually defined, the ED50 is the dose that gives a 50% effect, or the effect in half of the subjects.

For test [1], the system named is spontaneously hypertensive male rats, strain SHR. In words: Change in heart rate (HR) in SHR rats. Type of test: in vivo, rat. Here is the method:
(§1) Four spontaneously hypertensive male rats, strain SHR, weighing 250-300 g for each group were used. The animals were treated once a day for four consecutive days. Drugs were administered by gastric gavage, suspended in 5% gum arabic (0.2 ml/100 g body weight) and blood pressure (BP) and heart rate (HR) were measured by indirected tail/cuff method (BP Recorder W+W). Blood pressure and heart rate were measured on the first and fourth days of treatment 1 hour before and 1 and 5 hours after drug administration. Hydralazine and α-methyl-Dopa were used as reference drugs.

Test [2] shares this test system. In words: Anti-hypertensive activity: change in blood pressure (BP) in SHR rats. Type of test: in vivo, rat. Here is the method: as §1
For test [3], the system named is prolactin secretion. In words: Anti-prolactin activity: egg-nidation inhibition in rats. Type of test: in vivo, rat (Sprague Dawley). As to conditions: Rattus norvegicus, po, 120 h; p.o., day 5 of pregnancy; read-out: Nidation inhibition in rats ED50. From the text:
The prolactin secretion inhibitory action of the compounds has been indirectly evaluated by determining the egg-nidation inhibitory action in rats. For the ergoline derivatives this activity is considered to be correlated with the anti-prolactin activity (E. FLUCKIGER and E. DEL POZO,Handb. exp. Pharmac. 49, 615, 1978), since prolactin is the only hypophysial hormone involved in the maintenance of the first part of pregnancy in rats (W. K. MORISHIGE and I. ROTHCHILD, Endocrinology 95, 260, 1974).
Pregnant Sprague Dawley rats weighing 200-250 g were used. The compounds to be tested, dissolved in diluted mineral acids, were administered orally to groups from six to eight rats on day 5 of pregnancy. The animals were sacrificed on day 14 and the uteri were examined. The absence of implantation sites was taken as the criterion of anti-prolactin activity. Several doses were tested for the ED50 evaluation. As reference standard Bromocriptine was used.

Setting [4] is: 0.5 mg/kg os, 1st day, 1 hour after dosing.
[5] abbreviates: 0.5 mg/kg os, 1st day, 5 hours after dosing.
The mark [6] stands for this setting: 0.5 mg/kg os, 4th day, 1 hour after dosing.
The mark [7] stands for this setting: 0.5 mg/kg os, 4th day, 5 hours after dosing.
Setting [8] is: 1 mg/kg os, 1st day, 1 hour after dosing.
Where [9] appears, read: 1 mg/kg os, 1st day, 5 hours after dosing.
[10] abbreviates: 1 mg/kg os, 4th day, 1 hour after dosing.
[11] abbreviates: 1 mg/kg os, 4th day, 5 hours after dosing.
The mark [12] stands for this setting: os, all tested doses of the compound.
[13] abbreviates: 2 mg/kg os, 1st day, 1 hour after dosing.
Where [14] appears, read: 2 mg/kg os, 1st day, 5 hours after dosing.
Setting [15] is: 2 mg/kg os, 4th day, 1 hour after dosing.
The mark [16] stands for this setting: 2 mg/kg os, 4th day, 5 hours after dosing.
Setting [17] is: 10 mg/kg os, 1st day, 1 hour after dosing.
[18] abbreviates: 10 mg/kg os, 1st day, 5 hours after dosing.
Where [19] appears, read: 10 mg/kg os, 4th day, 1 hour after dosing.
Setting [20] is: 10 mg/kg os, 4th day, 5 hours after dosing.
[21] abbreviates: 0.1 mg/kg os, 1st day, 1 hour after dosing.
Setting [22] is: 0.1 mg/kg os, 1st day, 5 hours after dosing.
[23] abbreviates: 0.1 mg/kg os, 4th day, 1 hour after dosing.
The mark [24] stands for this setting: 0.1 mg/kg os, 4th day, 5 hours after dosing.
The mark [25] stands for this setting: 12.5 mg/kg os, 1st day, 1 hour after dosing.
Where [26] appears, read: 12.5 mg/kg os, 1st day, 5 hours after dosing.
Setting [27] is: 12.5 mg/kg os, 4th day, 1 hour after dosing.
Where [28] appears, read: 12.5 mg/kg os, 4th day, 5 hours after dosing.
[29] abbreviates: 5 mg/kg os, 1st day, 1 hour after dosing.
The mark [30] stands for this setting: 5 mg/kg os, 1st day, 5 hours after dosing.
Setting [31] is: 5 mg/kg os, 4th day, 1 hour after dosing.
The mark [32] stands for this setting: 5 mg/kg os, 4th day, 5 hours after dosing.

As to `CC(C)NC(=O)N(C(=O)[C@@H]1C[C@@H]2c3cccc4[nH]cc(c34)C[C@H]2N(C)C1)C(C)C` [Example 1, 1,3-diisopropyl-3-(6'-methylergoline-8'β-carbonyl)urea], the “Change in HR” value in test [1] (setting [4]) is -20 beats/minute; in test [1] (setting [5]), -12 beats/minute; in test [1] (setting [6]), -20 beats/minute; in test [1] (setting [7]) it was -7 beats/minute; in test [1] (setting [8]), -30 beats/minute; in test [1] (setting [9]) it was -35 beats/minute. In addition, the “Change in HR” value in test [1] (setting [10]) is given as -35 beats/minute; in test [1] (setting [11]) it was -30 beats/minute. The “Change in BP” value is listed as -27 mmHg in test [2] (setting [4]); -20 mmHg in test [2] (setting [5]); -20 mmHg in test [2] (setting [6]); 0 mmHg in test [2] (setting [7]); -40 mmHg in test [2] (setting [8]); -37 mmHg in test [2] (setting [9]). The entries for the “Change in BP” value in test [2] (setting [10]) and in test [2] (setting [11]) were -40 mmHg and -32 mmHg, respectively. The “Hypotensive activity vs Hydralazine” value in test [2] (doses not stated) was “greater and longer lasting hypotensive activity than Hydralazine”. Besides, in test [2] (setting [12]), the “Effect on BP (in words)” value is “marked decrease of BP in a dose dependent manner”.
As to `CO[C@]12C[C@@H](C(=O)N(C(=O)NC(C)(C)C)C(C)(C)C)CN(C)[C@@H]1Cc1c[nH]c3cccc2c13` [Example 12, 1,3-di-t-butyl-3-(10'αmethoxy-6'-methylergoline-8'β-carbonyl)-urea], the “Change in HR” value in test [1] (setting [13]) was -10 beats/minute; in test [1] (setting [14]), -10 beats/minute; in test [1] (setting [15]) it was -20 beats/minute; in test [1] (setting [16]), -12 beats/minute; in test [1] (setting [17]) it was 0 beats/minute; in test [1] (setting [18]), -30 beats/minute. In addition, the “Change in HR” value is “+17 beats/minute” in test [1] (setting [19]) and -10 beats/minute in test [1] (setting [20]). The “Change in BP” value in test [2] (setting [13]) was -17 mmHg; in test [2] (setting [14]) it was -17 mmHg; in test [2] (setting [15]), -10 mmHg; in test [2] (setting [16]) it was -24 mmHg; in test [2] (setting [17]), -26 mmHg; in test [2] (setting [18]), -37 mmHg. In addition, the “Change in BP” value is reported as -71 mmHg in test [2] (setting [19]) and -28 mmHg in test [2] (setting [20]). Also, the “Tolerance on the 4th day” value in test [2] (10 mg/kg) is “tolerance does not occur”. Moreover, the “Hypotensive activity vs Hydralazine” value was “comparable activity to that of Hydralazine” in test [2] (compound 10 mg/kg vs Hydralazine 5 mg/kg, 1st day) and “greater activity on the 4th day” in test [2] (compound 10 mg/kg vs Hydralazine 5 mg/kg, 4th day). The “Effect on BP (in words)” value in test [2] (setting [12]) is given as “reduced BP in a dose dependent manner”.
In the case of `CO[C@]12C[C@@H](C(=O)N(C(=O)NC(C)(C)C)C(C)(C)C)CN(C)[C@@H]1Cc1cn(C)c3cccc2c13` [Example 17], the “Change in HR” value in test [1] (setting [21]) is listed as -2 beats/minute; in test [1] (setting [22]), “+3 beats/minute”; in test [1] (setting [23]), -4 beats/minute; in test [1] (setting [24]), -8 beats/minute; in test [1] (setting [8]), -20 beats/minute; in test [1] (setting [9]), -23 beats/minute. In addition, the “Change in HR” value in test [1] (setting [10]) is -27 beats/minute; in test [1] (setting [11]), -22 beats/minute; in test [1] (setting [17]), “+15 beats/minute”; in test [1] (setting [18]), -13 beats/minute; in test [1] (setting [19]), -2 beats/minute; in test [1] (setting [20]), “+6 beats/minute”. In addition, the “Effect on BP (in words)” value was “No effect” in test [2] (0.1 mg/kg b.w.); “dose related as well as very marked” in test [2] (10 mg/kg b.w., 1st and 4th day). The “Change in BP” value in test [2] (setting [21]) is given as -5 mmHg; in test [2] (setting [22]), -7 mmHg; in test [2] (setting [23]), -4 mmHg; in test [2] (setting [24]) it was -10 mmHg; in test [2] (setting [8]), -20 mmHg; in test [2] (setting [9]), -19 mmHg. The “Change in BP” value is on record as -43 mmHg in test [2] (setting [10]); -66 mmHg in test [2] (setting [11]); -60 mmHg in test [2] (setting [18]); -59 mmHg in test [2] (setting [19]); -93 mmHg in test [2] (setting [20]). Also, the “Hypotensive activity vs Hydralazine” value in test [2] (compound 1 mg/kg vs Hydralazine 5 mg/kg, 4th day) is given as “much more remarkable”; in test [2] (compound 1 mg/kg vs Hydralazine 5 mg/kg, first day) it was “comparable to that of Hydralazine”. Besides, the “Hypotensive effect vs Hydralazine” value in test [2] (compound 10 mg/kg b.w., 1st and 4th days) was “hypotensive effect larger than Hydralazine”.
Turning to `CN1C[C@H](C(=O)N(C(=O)NC(C)(C)C)C(C)(C)C)C[C@@H]2c3cccc4c3c(cn4C)C[C@H]21` [Example 18, 1,3-di-tert-butyl-3-(1',6'-dimethylergoline-8'β-carbonyl)urea], the “Change in HR” value in test [1] (setting [8]) is given as -22 beats/minute; in test [1] (setting [9]) it was -20 beats/minute; in test [1] (setting [10]), “+7 beats/minute”; in test [1] (setting [11]), -8 beats/minute; in test [1] (setting [25]), -10 beats/minute; in test [1] (setting [26]), -15 beats/minute. In addition, the entries for the “Change in HR” value in test [1] (setting [27]) and in test [1] (setting [28]) were “+2 beats/minute” and “+5 beats/minute”, respectively. Further, the “Change in BP” value is given as -15 mmHg in test [2] (setting [8]); -10 mmHg in test [2] (setting [9]); -8 mmHg in test [2] (setting [10]); -14 mmHg in test [2] (setting [11]); -19 mmHg in test [2] (setting [25]); -19 mmHg in test [2] (setting [26]). Moreover, the “Change in BP” value in test [2] (setting [27]) was -38 mmHg; in test [2] (setting [28]), -47 mmHg. Further, the “Effect on BP (in words)” value was “very remarkable on the 4th day of treatment and still lasting 5 hours after administration” in test [2] (12.5 mg/kg b.w. (highest dose), 4th day); “reduced BP with both the tested doses (12.5 and 1 mg/kg b.w.); this effect was dose dependent” in test [2] (setting [12]). Besides, the “Hypotensive activity vs Hydralazine” value in test [2] (compound 12.5 mg/kg vs Hydralazine 5 mg/kg, 4th day) was “much more remarkable”; in test [2] (compound 12.5 mg/kg vs Hydralazine 5 mg/kg, first day), “comparable to that of Hydralazine”.
For the molecule `C=CCN1C[C@H](C(=O)N(CC)C(=O)NCCCN(C)C)C[C@@H]2c3cccc4[nH]cc(c34)C[C@H]21` [Example 20, 1-(3'-dimethylaminopropyl)-3-ethyl-3-(6'-allylergoline-8'β-carbonyl)-urea], the ED50 in test [3] was 0.27 mg/kg.
The same measure, in the same setting: under `C=CCN1C[C@H](C(=O)N(C)C(=O)NC)C[C@@H]2c3cccc4[nH]cc(c34)C[C@H]21` [Example 24, 1,3-Dimethyl-3-(6'-allylergoline-8'β-carbonyl)-urea] stands 0.5 mg/kg.
`NNc1nncc2ccccc12` [Hydralazine, reference compound]: the “Change in HR” value was “+30 beats/minute” in test [1] (setting [8]); “+35 beats/minute” in test [1] (setting [9]); “+25 beats/minute” in test [1] (setting [10]); “+15 beats/minute” in test [1] (setting [11]); “+40 beats/minute” in test [1] (setting [29]); “+45 beats/minute” in test [1] (setting [30]). The figures for the “Change in HR” value in test [1] (setting [31]) and in test [1] (setting [32]) were “+18 beats/minute” and “+15 beats/minute”, respectively. The “Effect on HR (in words)” value in test [1] (SHR rats, os) is given as “increase of HR”. Also, the “Change in BP” value is given as -5 mmHg in test [2] (setting [8]); -15 mmHg in test [2] (setting [9]); -5 mmHg in test [2] (setting [10]); 0 mmHg in test [2] (setting [11]); -40 mmHg in test [2] (setting [29]); -20 mmHg in test [2] (setting [30]). Also, the figures for the “Change in BP” value in test [2] (setting [31]) and in test [2] (setting [32]) were -20 mmHg and -7 mmHg, respectively.
